The record followed here is PMC11527646, “Pharmacological blockade of the mast cell MRGPRX2 receptor supports investigation of its relevance in skin disorders” (Frontiers in Immunology, 2024).

The EC50 is the concentration giving half of the maximal effect. As a reminder, the IC50 is the concentration at which inhibition is half-maximal.

Each structure is given as a SMILES string. A value given as a limit tells only on which side of the number the result lay.

Holding throughout (assay type): cell-based
The target in assay [1] is T1, ß2-Adrenoreceptor (ADRB2) (Homo sapiens, UniProt P07550).
T1 construct: expressed in transfected cells
T1 sequence (P07550 whole entry): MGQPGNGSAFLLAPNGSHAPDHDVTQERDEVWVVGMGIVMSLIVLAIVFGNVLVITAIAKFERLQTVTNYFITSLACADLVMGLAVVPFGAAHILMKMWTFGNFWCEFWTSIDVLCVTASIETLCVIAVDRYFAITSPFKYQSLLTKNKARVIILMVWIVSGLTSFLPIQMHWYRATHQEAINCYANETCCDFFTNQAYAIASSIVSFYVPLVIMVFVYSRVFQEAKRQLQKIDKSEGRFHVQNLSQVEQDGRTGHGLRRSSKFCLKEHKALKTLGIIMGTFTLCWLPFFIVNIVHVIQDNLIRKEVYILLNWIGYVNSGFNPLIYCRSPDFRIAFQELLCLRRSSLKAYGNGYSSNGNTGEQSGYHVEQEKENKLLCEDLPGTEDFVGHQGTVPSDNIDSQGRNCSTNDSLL
In words: GPCR selectivity cellular assay. As to the method: (§1) tagonists, with little activity detected on other GPCRs. Antagonist and/or agonist activities of the two compounds were determined in cellular assays for 20 human G-protein coupled receptors (GPCR) beside MRGPRX2. Recombinant over-expression systems in mammalian cells were used for all assays listed in this table. […]
(§2) reported as ‘>’ the highest compound concentration allowed in that assay.
(§3) GPCR Target Name Gene symbol Mode of Activity Compound-A Compound-B […]
(§4) Agonist Activity (EC50 ) or Antagonist Activity (IC50 ), nM […]

Assay [2] addresses T2, D2 receptor (DRD2) (Homo sapiens, UniProt P14416).
T2 construct: expressed in transfected cells
The assay is described as follows: GPCR selectivity cellular assay. The procedure: as §1, §2, §3, §4

The target of assay [3] is T3, H3 receptor (HRH3) (Homo sapiens, UniProt Q9Y5N1).
T3 construct: expressed in transfected cells
T3 sequence (Q9Y5N1 whole entry): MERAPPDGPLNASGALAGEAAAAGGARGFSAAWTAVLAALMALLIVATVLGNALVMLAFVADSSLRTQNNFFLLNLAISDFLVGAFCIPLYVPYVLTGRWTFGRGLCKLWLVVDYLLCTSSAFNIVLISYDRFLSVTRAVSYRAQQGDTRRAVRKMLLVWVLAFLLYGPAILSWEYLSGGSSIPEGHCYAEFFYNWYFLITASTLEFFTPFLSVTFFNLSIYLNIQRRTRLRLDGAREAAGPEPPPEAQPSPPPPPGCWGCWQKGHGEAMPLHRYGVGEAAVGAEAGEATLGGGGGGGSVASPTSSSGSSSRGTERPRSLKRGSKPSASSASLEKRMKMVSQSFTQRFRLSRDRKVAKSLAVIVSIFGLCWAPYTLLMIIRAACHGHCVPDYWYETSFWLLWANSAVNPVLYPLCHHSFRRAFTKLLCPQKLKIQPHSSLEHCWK
In words: GPCR selectivity cellular assay. The following applies: Antagonism; read-out: Antagonist Activity (IC50). The procedure:
as §1, §2, §3, §4

In assay [4] the target is T4, a2C-Adrenoreceptor (ADRA2C) (Homo sapiens, UniProt P18825).
T4 construct: expressed in transfected cells
T4 sequence (P18825 whole entry): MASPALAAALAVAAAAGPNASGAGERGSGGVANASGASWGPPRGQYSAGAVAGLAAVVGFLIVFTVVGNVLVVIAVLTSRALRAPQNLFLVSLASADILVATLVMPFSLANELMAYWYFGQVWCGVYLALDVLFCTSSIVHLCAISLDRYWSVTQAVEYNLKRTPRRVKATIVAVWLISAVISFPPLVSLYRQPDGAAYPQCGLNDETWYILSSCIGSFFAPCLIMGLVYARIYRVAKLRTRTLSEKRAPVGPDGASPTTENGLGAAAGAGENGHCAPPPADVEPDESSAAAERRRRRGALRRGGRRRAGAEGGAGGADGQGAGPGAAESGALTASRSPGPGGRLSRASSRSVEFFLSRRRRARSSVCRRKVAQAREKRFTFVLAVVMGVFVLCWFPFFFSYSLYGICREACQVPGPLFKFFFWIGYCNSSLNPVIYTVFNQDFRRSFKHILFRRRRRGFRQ
In words: GPCR selectivity cellular assay. The conditions noted are these: Agonism; read-out: Agonist Activity (EC50). The procedure:
as §1, §2, §3, §4

Assay [5] addresses µ-Receptor (OPRM1) (Homo sapiens, UniProt P35372). The assay is described as follows: GPCR selectivity cellular assay. The conditions noted are these: Agonism; read-out: Agonist Activity (EC50). The procedure: as §1, §2, §3, §4
For assay [6], the target named is T5, MRGPRX2 (Homo sapiens, UniProt Q96LB1).
T5 sequence (Q96LB1 1-330): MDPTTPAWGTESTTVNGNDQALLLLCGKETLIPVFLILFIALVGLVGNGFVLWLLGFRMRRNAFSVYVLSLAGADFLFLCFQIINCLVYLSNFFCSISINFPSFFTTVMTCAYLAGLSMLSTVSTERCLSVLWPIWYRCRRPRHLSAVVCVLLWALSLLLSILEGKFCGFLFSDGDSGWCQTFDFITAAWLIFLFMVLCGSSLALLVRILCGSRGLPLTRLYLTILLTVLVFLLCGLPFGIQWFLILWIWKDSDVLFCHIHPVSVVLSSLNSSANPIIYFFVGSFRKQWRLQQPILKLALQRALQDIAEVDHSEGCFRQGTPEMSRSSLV
The assay is described as follows: Calcium imaging of peritoneal mast cells isolated from human MRGPRX2 KI mice. The following applies: 100 nM antagonist; Cpd 48/80 1 μg/mL; n ≥ 4. As to the method:
Mouse peritoneal mast cells were purified and imaged as previously described ([4]). Mast cells were resuspended at 5 × 10^5 to 1 × 10^6 cells/mL in DMEM with 10% FBS and recombinant mouse SCF (25 ng/mL) and plated onto glass cover slips coated with fibronectin (30 µg/mL). For imaging, after 2 h of incubation at 37°C, 5% CO2, mast cells were loaded with Fluo-4 along with 0.02% Pluronic F-127 for 30 min at room temperature, washed three times in calcium imaging buffer (CIB), and used immediately for imaging. Cells were used within 2 h of loading. Cells were identified as responding if the [Ca^2+] rose by at least 50% for >10 s.
Figure 6 Oral treatment with the potent and selective MRGPRX2 antagonist, Compound B (3 mg/kg), blocks Cpd 48/80–induced itch response using human MRGPRX2 knock-in mice. […] Average ± SD blood-free concentration of antagonist measured at end of “itch” observation period was 19 ± 16 nM Compound B.

The mark [7] stands for this setting: Agonism, read-out: Agonist Activity (EC50).
The mark [8] stands for this setting: Antagonism, read-out: Antagonist Activity (IC50).

T2 sequence (P14416 whole entry): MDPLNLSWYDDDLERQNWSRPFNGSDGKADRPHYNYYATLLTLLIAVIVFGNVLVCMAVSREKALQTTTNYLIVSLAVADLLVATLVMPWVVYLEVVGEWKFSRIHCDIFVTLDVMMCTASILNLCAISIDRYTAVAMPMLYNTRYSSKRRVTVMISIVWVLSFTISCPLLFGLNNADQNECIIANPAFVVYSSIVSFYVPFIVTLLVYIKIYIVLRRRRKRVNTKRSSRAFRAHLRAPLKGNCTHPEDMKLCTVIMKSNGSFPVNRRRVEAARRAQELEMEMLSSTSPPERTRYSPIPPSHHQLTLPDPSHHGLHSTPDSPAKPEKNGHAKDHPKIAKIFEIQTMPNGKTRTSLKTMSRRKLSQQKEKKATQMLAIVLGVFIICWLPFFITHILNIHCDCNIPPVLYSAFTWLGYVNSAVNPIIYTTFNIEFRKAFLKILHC
Chain of µ-Receptor (OPRM1) (P35372 whole entry): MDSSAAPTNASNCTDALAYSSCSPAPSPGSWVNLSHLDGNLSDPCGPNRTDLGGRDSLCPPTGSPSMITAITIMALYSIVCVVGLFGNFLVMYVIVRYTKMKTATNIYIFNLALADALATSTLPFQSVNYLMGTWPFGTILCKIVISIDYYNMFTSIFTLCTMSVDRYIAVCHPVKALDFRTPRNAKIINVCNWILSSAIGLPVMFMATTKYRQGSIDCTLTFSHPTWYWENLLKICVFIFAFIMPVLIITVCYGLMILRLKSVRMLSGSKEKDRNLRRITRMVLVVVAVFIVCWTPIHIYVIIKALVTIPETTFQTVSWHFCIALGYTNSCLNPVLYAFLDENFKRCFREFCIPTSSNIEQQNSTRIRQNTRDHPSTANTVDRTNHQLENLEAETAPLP

As to `C[C@@H](C(=O)Nc1cnc(Oc2ccc(F)cc2F)cn1)N1CCC(F)(F)[C@@H](c2cc[n+]([O-])cc2)C1` [Compound B], the EC50 in assay [1] (setting [7]), in assay [2] (setting [7]), in assay [4] and in assay [5] was above 100 µM throughout. The IC50 in assay [1] (setting [8]) is above 100 µM; in assay [2] (setting [8]), above 100 µM; in assay [3], above 50 µM. Further, in assay [6], the “Effect on Cpd 48/80-mediated activation of peritoneal mast cells” value was “completely antagonize”.
